Holding throughout (format): functional
For experiment [1], the system named is Candida albicans. As to the kind of experiment: Antifungal activity against Candida albicans NRRLY-477 assessed as diameter of inhibition zone at 1 mg/ml after 24 hrs by agar well diffusion method. Conditions: NRRLY-477, 24 h, read-out: DIZ.
The subject of experiment [2] is Klebsiella pneumoniae. As to the kind of experiment: Antibacterial activity against Klebsiella pneumoniae ATCC 13883 assessed as diameter of inhibition zone at 1 mg/ml after 24 hrs by agar well diffusion method. The following applies: ATCC 13883, 24 h, read-out: DIZ.
In experiment [3] the test system is Priestia megaterium. Put plainly: Antibacterial activity against Bacillus megaterium ATCC 9885 assessed as diameter of inhibition zone at 1 mg/ml after 24 hrs by agar well diffusion method. The following applies: ATCC 9885, 24 h, read-out: DIZ.
Experiment [4] relates to Bacillus subtilis. Put plainly: Antibacterial activity against Bacillus subtilis ATCC 6633 assessed as diameter of inhibition zone at 1 mg/ml after 24 hrs by agar well diffusion method. Conditions: ATCC 6633, 24 h, read-out: DIZ.
Experiment [5] relates to Pseudomonas aeruginosa. As to the kind of experiment: Antibacterial activity against Pseudomonas aeruginosa ATCC 27953 assessed as diameter of inhibition zone at 1 mg/ml after 24 hrs by agar well diffusion method. The following applies: ATCC 27953, 24 h, read-out: DIZ. In general terms: A growth-free zone around the sample is the usual read-out of agar diffusion tests.
Experiment [6] has as its system Escherichia coli. As to the kind of experiment: Antibacterial activity against Escherichia coli ATCC 25922 assessed as diameter of inhibition zone at 1 mg/ml after 24 hrs by agar well diffusion method. Conditions: ATCC 25922, 24 h, read-out: DIZ.
Experiment [7] deals with Staphylococcus aureus. Put plainly: Antibacterial activity against Staphylococcus aureus ATCC 29213 assessed as diameter of inhibition zone at 1 mg/ml after 24 hrs by agar well diffusion method. The following applies: ATCC 29213, 24 h, read-out: DIZ.
For experiment [8], the system named is Saccharomyces cerevisiae. As to the kind of experiment: Antifungal activity against Saccharomyces cerevisiae assessed as diameter of inhibition zone at 1 mg/ml after 24 hrs by agar well diffusion method. Conditions: read-out: DIZ.
Experiment [9] has as its system Micrococcus luteus. As to the kind of experiment: Antibacterial activity against Sarcina lutea assessed as diameter of inhibition zone at 1 mg/ml after 24 hrs by agar well diffusion method. Conditions: read-out: DIZ.
Experiment [10] has as its system Proteus vulgaris. As to the kind of experiment: Antibacterial activity against Proteus vulgaris assessed as diameter of inhibition zone at 1 mg/ml after 24 hrs by agar well diffusion method. Conditions: read-out: DIZ.
Experiment [11] has as its system Priestia megaterium. Put plainly: Antibacterial activity against Bacillus megaterium ATCC 9885 after 24 hrs by two fold serial dilution technique. The following applies: ATCC 9885, 24 h.
The subject of experiment [12] is Micrococcus luteus. Put plainly: Antibacterial activity against Sarcina lutea after 24 hrs by two fold serial dilution technique.
The test system of experiment [13] is Candida albicans. Put plainly: Antifungal activity against Candida albicans NRRLY-477 after 24 hrs by two fold serial dilution technique. The following applies: NRRLY-477, 24 h.
Experiment [14] deals with Pseudomonas aeruginosa. Put plainly: Antibacterial activity against Pseudomonas aeruginosa ATCC 27953 after 24 hrs by two fold serial dilution technique. The following applies: ATCC 27953, 24 h.
Experiment [15] relates to Saccharomyces cerevisiae. As to the kind of experiment: Antifungal activity against Saccharomyces cerevisiae after 24 hrs by two fold serial dilution technique.
The test system of experiment [16] is Klebsiella pneumoniae. As to the kind of experiment: Antibacterial activity against Klebsiella pneumoniae ATCC 13883 after 24 hrs by two fold serial dilution technique. The following applies: ATCC 13883, 24 h.
Experiment [17] concerns Staphylococcus aureus. Put plainly: Antibacterial activity against Staphylococcus aureus ATCC 29213 after 24 hrs by two fold serial dilution technique. The following applies: ATCC 29213, 24 h.
The test system of experiment [18] is Proteus vulgaris. As to the kind of experiment: Antibacterial activity against Proteus vulgaris after 24 hrs by two fold serial dilution technique.
The subject of experiment [19] is Bacillus subtilis. Put plainly: Antibacterial activity against Bacillus subtilis ATCC 6633 after 24 hrs by two fold serial dilution technique. The following applies: ATCC 6633, 24 h.
The subject of experiment [20] is Escherichia coli. As to the kind of experiment: Antibacterial activity against Escherichia coli ATCC 25922 after 24 hrs by two fold serial dilution technique. The following applies: ATCC 25922, 24 h.

Structures are written as SMILES. Values after ≈ are worked out from the molar mass of the structure shown.

Zone of inhibition and MIC data for 12 compounds are collected here from ChEMBL document CHEMBL2385069, “Thiourea derivatives incorporating a hippuric acid moiety: synthesis and evaluation of antibacterial and antifungal activities” (2013).

A word on the MIC: it is the least concentration at which growth counts as inhibited.

In the case of `CCCCCCNC(=S)Nc1ccc(C(=O)NCC(=O)O)cc1`, the zone of inhibition at 1000 µg/mL is 0 mm in experiment [1]; 12 mm in experiment [2]; 23 mm in experiment [3]; 9 mm in experiment [4]; 0 mm in experiment [5]; 11 mm in [6]. In addition, the zone of inhibition at 1000 µg/mL in experiment [7] was 0 mm; in [8], 9 mm; in [9] it was 24 mm; in experiment [10] it was 0 mm.

On to `O=C(O)CNC(=O)c1ccc(NC(=S)Nc2ccccc2)cc1`, for which the zone of inhibition at 1000 µg/mL is 0 mm in experiment [1]; 0 mm in experiment [2]; 13 mm in [3]; 17 mm in experiment [4]; 12 mm in experiment [5]; 19 mm in [6]. Further, the zone of inhibition at 1000 µg/mL in experiment [7], in [8], in [9] and in experiment [10] was 0 mm in each case.

In the case of `Cc1ccc(NC(=S)Nc2ccc(C(=O)NCC(=O)O)cc2)cc1`, the zone of inhibition at 1000 µg/mL stood at 18 mm in experiment [1]; 0 mm in experiment [2]; 19 mm in experiment [3]; 0 mm in [4]; 0 mm in experiment [5]; 9 mm in experiment [6]. In addition, the zone of inhibition at 1000 µg/mL in [7] stood at 0 mm; in [8] it was 0 mm; in [9] it was 25 mm; in experiment [10] it was 20 mm.

Regarding `O=C(O)CNC(=O)c1ccc(NC(=S)Nc2cccc(F)c2)cc1`, the zone of inhibition at 1000 µg/mL in experiment [1] was 22 mm; in experiment [2] it was 23 mm; in experiment [3], 27 mm; in [4] it was 18 mm; in experiment [5], 21 mm; in [6], 20 mm. Also, the zone of inhibition at 1000 µg/mL in experiment [7] was 20 mm; in experiment [8], 17 mm; in experiment [9], 20 mm; in [10] it was 25 mm. The MIC in experiment [11] was found to be 12.5 µg/mL (≈ 36 µM); in experiment [12], 12.5 µg/mL (≈ 36 µM); in experiment [13], 12.5 µg/mL (≈ 36 µM); in experiment [14] it was 12.5 µg/mL (≈ 36 µM); in experiment [15] it was 25 µg/mL (≈ 72 µM); in [16], 12.5 µg/mL (≈ 36 µM). Also, the MIC in [17] was 50 µg/mL (≈ 144 µM); in [18], 12.5 µg/mL (≈ 36 µM); in experiment [19], 12.5 µg/mL (≈ 36 µM); in experiment [20] it was 12.5 µg/mL (≈ 36 µM).

On to `O=C(O)CNC(=O)c1ccc(NC(=S)Nc2ccc(F)cc2)cc1`, for which the zone of inhibition at 1000 µg/mL in experiment [1] came out at 9 mm; in experiment [2] it was 20 mm; in experiment [3] it was 15 mm; in experiment [4], 0 mm; in [5] it was 22 mm; in [6], 22 mm. The zone of inhibition at 1000 µg/mL in experiment [7] came out at 20 mm; in experiment [8], 13 mm; in experiment [9], 20 mm; in [10], 20 mm.

On to `O=C(O)CNC(=O)c1ccc(NC(=S)Nc2c3ccccc3nc3ccccc23)cc1`, for which the zone of inhibition at 1000 µg/mL was determined as 11 mm in experiment [1]; 23 mm in experiment [2]; 18 mm in experiment [3]; 12 mm in [4]; 15 mm in experiment [5]; 15 mm in experiment [6]. Besides, the zone of inhibition at 1000 µg/mL is 20 mm in [7], 0 mm in experiment [8], 0 mm in [9] and 20 mm in experiment [10].

As for `O=C(O)CNC(=O)c1ccc(NC(=S)Nc2ccccc2C(=O)Nc2cccc(C(F)(F)F)c2)cc1`, the zone of inhibition at 1000 µg/mL in [1] was 0 mm; in experiment [2], 0 mm; in experiment [3], 14 mm; in experiment [4], 16 mm; in experiment [5], 0 mm; in experiment [6], 0 mm. Also, the zone of inhibition at 1000 µg/mL came to 0 mm in [7], 15 mm in experiment [8], 0 mm in experiment [9] and 10 mm in experiment [10].

For `CCOc1ccc(NC(=O)c2ccccc2NC(=S)Nc2ccc(C(=O)NCC(=O)O)cc2)cc1`, the zone of inhibition at 1000 µg/mL amounted to 9 mm in [1]; 20 mm in experiment [2]; 0 mm in experiment [3]; 0 mm in experiment [4]; 0 mm in experiment [5]; 0 mm in experiment [6]. Also, the zone of inhibition at 1000 µg/mL worked out at 20 mm in experiment [7], 18 mm in experiment [8], 0 mm in [9] and 15 mm in experiment [10].

Consider `NS(=O)(=O)c1ccc(NC(=S)Nc2ccc(C(=O)NCC(=O)O)cc2)cc1`, for which the zone of inhibition at 1000 µg/mL in [1] was found to be 0 mm; in experiment [2] it was 22 mm; in experiment [3] it was 20 mm; in experiment [4] it was 18 mm; in experiment [5] it was 19 mm; in [6], 18 mm. For the same compound, the zone of inhibition at 1000 µg/mL in experiment [7] amounted to 14 mm; in experiment [8], 17 mm; in experiment [9], 20 mm; in experiment [10], 20 mm.

`O=C(O)CNC(=O)c1ccc(NC(=S)Nc2ccc(C(=O)NCC(=O)O)cc2)cc1`: the zone of inhibition at 1000 µg/mL was 19 mm in experiment [1]; 23 mm in experiment [2]; 17 mm in experiment [3]; 18 mm in experiment [4]; 22 mm in experiment [5]; 22 mm in experiment [6]. For the same compound, the zone of inhibition at 1000 µg/mL in experiment [7] amounted to 22 mm; in experiment [8] it was 18 mm; in experiment [9], 15 mm; in experiment [10], 21 mm. Moreover, the MIC came out at 12.5 µg/mL (≈ 29 µM) in experiment [11]; 25 µg/mL (≈ 58.1 µM) in experiment [12]; 12.5 µg/mL (≈ 29 µM) in experiment [13]; 12.5 µg/mL (≈ 29 µM) in experiment [14]; 50 µg/mL (≈ 116 µM) in experiment [15]; 12.5 µg/mL (≈ 29 µM) in experiment [16]. In addition, the MIC in [17] was found to be 50 µg/mL (≈ 116 µM); in experiment [18], 25 µg/mL (≈ 58.1 µM); in [19] it was 50 µg/mL (≈ 116 µM); in experiment [20], 12.5 µg/mL (≈ 29 µM).

For the compound `O=C(O)CNC(=O)c1ccc(NC(=S)Nc2ccc(NC(=S)Nc3ccc(C(=O)NCC(=O)O)cc3)cc2)cc1`, the zone of inhibition at 1000 µg/mL was found to be 26 mm in experiment [1]; 16 mm in experiment [2]; 24 mm in [3]; 31 mm in experiment [4]; 22 mm in experiment [5]; 24 mm in [6]. Moreover, the zone of inhibition at 1000 µg/mL in experiment [7] is 20 mm; in experiment [8], 26 mm; in experiment [9], 10 mm; in experiment [10], 18 mm. In addition, the MIC in experiment [11] was determined as 12.5 µg/mL (≈ 21.5 µM); in [12], 50 µg/mL (≈ 86.1 µM); in experiment [13], 12.5 µg/mL (≈ 21.5 µM); in [14], 12.5 µg/mL (≈ 21.5 µM); in experiment [15], 25 µg/mL (≈ 43.1 µM); in experiment [16], 12.5 µg/mL (≈ 21.5 µM). Also, the MIC was 50 µg/mL (≈ 86.1 µM) in [17], 25 µg/mL (≈ 43.1 µM) in experiment [18], 12.5 µg/mL (≈ 21.5 µM) in experiment [19] and 25 µg/mL (≈ 43.1 µM) in [20].

`CCCCNC(=S)Nc1ccc(C(=O)NCC(=O)O)cc1`: the zone of inhibition at 1000 µg/mL was found to be 10 mm in experiment [1]; 20 mm in experiment [2]; 16 mm in experiment [3]; 13 mm in [4]; 22 mm in [5]; 22 mm in experiment [6]. Further, the zone of inhibition at 1000 µg/mL was found to be 22 mm in experiment [7], 18 mm in experiment [8], 9 mm in experiment [9] and 21 mm in experiment [10].
